Target: T1, RXFP2 (Homo sapiens, UniProt Q8WXD0)
T1 construct: expressed in transfected cells
Test: HTRF cAMP assay in HEK293T cells stably expressing RXFP2 (HEK-RXFP2)
Type: cell-based
Conditions: for % EFF vs. 1 nM INSL3 (b): normalized to 1 nM INSL3 cAMP response; for % EFF vs. 100 nM INSL3 (c): normalized to 100 nM INSL3 cAMP response
Experimental: Compound efficacy and EC50 were determined by measuring cAMP induction in vitro. HEK293T cells stably expressing RXFP2 (HEK-RXFP2) produce cAMP when RXFP2 is activated, which can be measured in an antibody-based immunoassay utilizing a fluorescent readout (cAMP Gs HiRange Kit, PerkinElmer, Waltham, MA). HEK-RXFP2 cells were seeded in 96-well plates in serum-free DMEM and incubated overnight at 37° C., 5% CO2. Plates were then treated with a compound titration up to 25 μM or INSL3 control, in the presence of isobutylmethylxanthine phosphodiesterase inhibitor (IBMX) at 200 μM to amplify the cAMP signal, for 1 hour at 37° C., 5% CO2 before being processed as per kit instructions. Table 7 lists the efficacy and EC50 of compounds tested under different experimental conditions. […] In condition (a), 20,000 cells were seeded per well in the 96 well plate, and efficacy was determined by normalizing the maximum compound cAMP response to the 1 nM INSL3 cAMP response (% Efficacy 1 nM INSL3 (a)). In condition (b), 10,000 cells were seeded per well, and compound response was normalized to the 1 nM INSL3 cAMP response (% Efficacy 1 nM INSL3 (b)). In condition (c), 7,500 cells were seeded per well, compound response was normalized to the 100 nM INSL3 cAMP response, and IBMX was omitted (% Efficacy 100 nM INSL3 (c)). A range is given when compounds were tested multiple times. Where compounds were tested under multiple experimental conditions, the EC50 listed for the corresponding condition is marked (a) through (c) to correlate. When EC50 could not be calculated from the dose-response curve, EC50 is listed as not determined (ND).

[1] = condition (b): 10,000 cells/well, IBMX 200 μM
[2] = condition (c): 7,500 cells/well, IBMX omitted

T1 sequence (Q8WXD0 whole entry): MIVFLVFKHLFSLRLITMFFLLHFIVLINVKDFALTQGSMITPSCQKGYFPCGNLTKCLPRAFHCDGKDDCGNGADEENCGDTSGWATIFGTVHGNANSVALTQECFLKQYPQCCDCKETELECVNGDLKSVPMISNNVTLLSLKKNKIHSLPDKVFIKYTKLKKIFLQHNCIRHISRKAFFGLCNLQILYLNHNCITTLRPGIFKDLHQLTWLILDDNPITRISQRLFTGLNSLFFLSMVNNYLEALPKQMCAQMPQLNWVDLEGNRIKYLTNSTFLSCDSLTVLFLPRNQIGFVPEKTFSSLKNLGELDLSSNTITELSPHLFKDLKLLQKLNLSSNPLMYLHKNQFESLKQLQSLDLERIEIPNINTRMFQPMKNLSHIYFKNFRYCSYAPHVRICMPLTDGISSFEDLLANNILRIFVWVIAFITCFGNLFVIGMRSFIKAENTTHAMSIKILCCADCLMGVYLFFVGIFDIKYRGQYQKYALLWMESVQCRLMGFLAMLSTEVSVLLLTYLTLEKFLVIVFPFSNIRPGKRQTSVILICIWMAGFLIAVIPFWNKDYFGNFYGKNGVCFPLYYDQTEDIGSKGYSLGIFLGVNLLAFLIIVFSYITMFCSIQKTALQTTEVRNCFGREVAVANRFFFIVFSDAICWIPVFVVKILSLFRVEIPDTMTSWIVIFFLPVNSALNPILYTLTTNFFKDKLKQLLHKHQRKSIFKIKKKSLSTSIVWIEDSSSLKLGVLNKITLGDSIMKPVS

Row | % EFF vs. 1 nM INSL3 (b) [1] [%] | % EFF vs. 100 nM INSL3 (c) [2] [%] | Compound | also measured
1 | 70.66 | – | Cc1cc(OC(F)F)ccc1OCC(=O)N1CCN2C(=O)c3cc(-c4cc(O)cc(C(F)(F)F)c4)ccc3NC(=O)[C@@H]2C1 [Example 172] | –
2 | 114.71 | – | O=C1Nc2ccc(-c3cc(O)cc(C(F)(F)F)c3)cc2C(=O)N2CCN(C(=O)COc3ccc(OC(F)(F)F)cc3Br)C[C@@H]12 [Example 173, (S)-2-(2-(2-Bromo-4-(trifluoromethoxy)phenoxy)acetyl)-8-(3-hydroxy-5-(trifluoromethyl)phenyl)-1,3,4,12a-tetrahydrobenzo[e]pyrazino[1,2-a][1,4]diazepine-6,12 (2H, 11H)-dione] | EC50 [1]: 64.2 nM
3 | – | 28.25 | O=C1Nc2ccc(-c3cccc(C(F)F)c3)cc2C(=O)N2CCN(C(=O)COc3ccc(OC(F)(F)F)cc3Cl)C[C@@H]12 [Example 179, (S)-2-(2-(2-chloro-4-(trifluoromethoxy)phenoxy)acetyl)-8-(3-(difluoromethyl)phenyl)-1,3,4,12a-tetrahydrobenzo[e]pyrazino[1,2-a][1,4]diazepine-6,12 (2H, 11H)-dione] | –
4 | – | 63.16 | COc1cc(OC(F)(F)F)ccc1OCC(=O)N1CCN2C(=O)c3cc(-c4cc(C(F)(F)F)cc(C(F)(F)F)c4)ccc3NC(=O)[C@@H]2C1 [Example 185, (S)-8-(3,5-bis(trifluoromethyl)phenyl)-2-(2-(2-methoxy-4-(trifluoromethoxy)phenoxy)acetyl)-1,3,4,12a-tetrahydrobenzo[e]pyrazino[1,2-a][1,4]diazepine-6,12 (2H, 11H)-dione] | EC50 [2]: 452 nM
5 | – | 66.75 | O=C1Nc2ccc(-c3cc(C4CC4)cc(C(F)(F)F)c3)cc2C(=O)N2CCN(C(=O)COc3ccc(OC(F)(F)F)cc3Br)C[C@@H]12 [Example 191, (S)-2-(2-(2-bromo-4-(trifluoromethoxy)phenoxy)acetyl)-8-(3-cyclopropyl-5-(trifluoromethyl)phenyl)-1,3,4,12a-tetrahydrobenzo[e]pyrazino[1,2-a][1,4]diazepine-6,12 (2H, 11H)-dione] | EC50 [2]: 189 nM

The next lines start with the compound.

Row | Compound | % EFF vs. 1 nM INSL3 (b) [1] [%] | % EFF vs. 100 nM INSL3 (c) [2] [%] | also measured
6 | Cc1cc(-c2ccc3c(c2)C(=O)N2CCN(C(=O)COc4ccc(OC(F)F)cc4C)C[C@H]2C(=O)N3)cc(C(F)(F)F)c1 [Example 168, (S)-2-(2-(4-(Difluoromethoxy)-2-methylphenoxy)acetyl)-8-(3-methyl-5-(trifluoromethyl)phenyl)-1,3,4,12a-tetrahydrobenzo[e]pyrazino[1,2-a][1,4]diazepine-6,12 (2H, 11H)-dione] | 131.20 | – | –
7 | Cc1cc(OC(F)F)ccc1OCC(=O)N1CCN2C(=O)c3cc(-c4cccc(C(F)F)c4)ccc3NC(=O)[C@@H]2C1 [Example 177, (S)-2-(2-(4-(difluoromethoxy)-2-methylphenoxy)acetyl)-8-(3-(difluoromethyl)phenyl)-1,3,4,12a-tetrahydrobenzo[e]pyrazino[1,2-a][1,4]diazepine-6,12 (2H, 11H)-dione] | – | 17.49 | –
8 | O=C1Nc2ccc(-c3cccc(C(F)F)c3)cc2C(=O)N2CCN(C(=O)COc3ccc(OC(F)(F)F)cc3Br)C[C@@H]12 [Example 178, (S)-2-(2-(2-Bromo-4-(trifluoromethoxy)phenoxy)acetyl)-8-(3-(difluoromethyl)phenyl)-1,3,4,12a-tetrahydrobenzo[e]pyrazino[1,2-a][1,4]diazepine-6,12 (2H, 11H)-dione] | – | 52.68 | –
9 | Cc1cc(OC(F)(F)F)ccc1OCC(=O)N1CCN2C(=O)c3cc(-c4cccc(C(F)F)c4)ccc3NC(=O)[C@@H]2C1 [Example 180, (S)-8-(3-(difluoromethyl)phenyl)-2-(2-(2-methyl-4-(trifluoromethoxy)phenoxy)acetyl)-1,3,4,12a-tetrahydrobenzo[e]pyrazino[1,2-a][1,4]diazepine-6,12 (2H, 11H)-dione] | – | 23.13 | –

From US20250134907A1, “FUSED DIAZEPINES AS AGONISTS OF THE INSULIN-LIKE 3 (INSL3) PEPTIDE RECEPTOR RXFP2 AND METHODS OF USE THEREOF” (The United States of America,as represented by the …, priority 2022, published 2025)
